For experiment [1], the target named is T1, rat TRPV1 channel (Rattus norvegicus, UniProt O35433).
T1 construct: expressed in transfected cells; host or cells: SH-SY5Y (human neuroblastoma) stably expressing rat TRPV1, under puromycin selection
Nature of the experiment: Calcium microfluorometry assay on TRPV1-SH-SY5Y cells, single concentration 10 μM. To be noted: for TRPV1 activation at 10 μM (% ± SD): compound 10 μM, Fluo-4 NW fluorescence, Cap (10 μM capsaicin) = 100%; for TRPV1 blockage at 10 μM (% ± SD): compound 10 μM before stimulation with 10 μM capsaicin, RR (10 μM Ruthenium Red) = 100%. The experiment is classed as cell-based. On the procedure: (§1) The activity of the compounds was determined on TRPV1 expressing cells (TRPV1-SH-SY5Y) by Calcium microfluorometry assay.
(§2) SH-SY5Y cells stably expressing rat TRPV1 channel (SH-SY5Y-TRPV1) were grown in Earle's minimum essential medium (MEM) containing 10% (v/v) of FCS, 1% nonessential amino acids, 2 mM L-glutamine, 100 μg/ml streptomycin, 100 U/ml penicillin, and 0.4 μg/ml puromycin in a humidity-controlled incubator with 5% CO2 and at 37° C. For fluorescence assays, cells expressing TRPV1 channel (TRPV1-SH-SY5Y) were seeded in 96-well plates (Corning Incorporated, Corning, N.Y.) at a cell density of 40,000 cells 2 days before treatment. The day of treatment the medium was replaced with 100 μL of the dye loading solution Fluo-4 NW supplemented with probenecid 2.5 mM. After incubation at 37° C. in a humidified atmosphere of 5% CO2 for 60 minutes, plates were transferred to a fluorescence plate reader (Polastar Omega BMG Labtech). The baseline fluorescence of Fluo-4 dye ([…]) was recorded for 4 cycles. […] The antagonist (10 μM Ruthenium Red for TRPV1) was added for the blockade. The changes in fluorescence intensity were recorded during 10 cycles more.

For experiment [2], the target named is T1, rat TRPV1 channel. Nature of the experiment: Dose response measurements (EC50/IC50), calcium microfluorometry on TRPV1-SH-SY5Y cells. The experiment is classed as cell-based. The note with it: n=3 in 3 independent experiments; for EC50: TRPV1 activation; for IC50: TRPV1 blockage. The protocol: as §1, §2
Normalized responses (%) versus log [μM] were adjusted to a non-linear fit with variable slope, a four-parameter dose-response curve Y=100/(1+10^((LogEC50−X)*HillSlope)) where […] or just dose-response curve Y=100/(1+10^((LogEC50−X))). EC50 are expressed with 95% confident interval followed by r^2 for regression adjustment. All data are expressed as mean±standard error of the mean […]. Each condition was assessed by triplicate (n=3) in 3 independent experiments (N=3).

Another experiment has as its system C57-mice. The experiment can be described thus: CFA-induced paw inflammation model of inflammatory pain, thermal hyperalgesia (paw withdrawal latency). The experiment is classed as in vivo. To be noted: 24 h after CFA. The protocol:
Data are given as mean±SEM n=6. 2-way ANOVA with Bonferroni post hoc test. *P<0.05; **P<0.01, ***P<0.001, […].
One of the compounds with higher potency (Ex-37) was selected to be tested in a model of inflammatory pain. C57-mice (≈30 g) were used for the study. C57BL/6 were obtained from Janvier, France. Complete Freund's adjuvant (CFA) emulsion (1:1 oil/saline, 0.5 mg/ml) was injected into the plantar surface (10 μl) of the right hind paw (Garcia-Martinez et al., 2006). 24 h after CFA injection, compound Ex-37 was administered intravenously (at 1 mg/kg, 3 mg/kg or 10 mg/kg) or intraplantar (at 10 mg/kg, 30 mg/kg or 100 mg/kg)) on the right hind paw. Thermal hyperalgesia was monitored 24 h after CFA injection and up to 2 h after administering the compound with an Ugo Basile Dynamic Plantar Aesthesiometer as reported previously (Garcia-Martinez et al., 2006). In brief, mice were habituated to an apparatus consisting of individual Perspex boxes on an elevated glass table. A mobile radiant heat source was located under the table and focused on the hind paw. Paw withdrawal latencies were defined as the time taken by the mouse to remove its hind paw from the heat source. A cutoff point of 25 s was set to prevent tissue damage.

T1 sequence (O35433 whole entry): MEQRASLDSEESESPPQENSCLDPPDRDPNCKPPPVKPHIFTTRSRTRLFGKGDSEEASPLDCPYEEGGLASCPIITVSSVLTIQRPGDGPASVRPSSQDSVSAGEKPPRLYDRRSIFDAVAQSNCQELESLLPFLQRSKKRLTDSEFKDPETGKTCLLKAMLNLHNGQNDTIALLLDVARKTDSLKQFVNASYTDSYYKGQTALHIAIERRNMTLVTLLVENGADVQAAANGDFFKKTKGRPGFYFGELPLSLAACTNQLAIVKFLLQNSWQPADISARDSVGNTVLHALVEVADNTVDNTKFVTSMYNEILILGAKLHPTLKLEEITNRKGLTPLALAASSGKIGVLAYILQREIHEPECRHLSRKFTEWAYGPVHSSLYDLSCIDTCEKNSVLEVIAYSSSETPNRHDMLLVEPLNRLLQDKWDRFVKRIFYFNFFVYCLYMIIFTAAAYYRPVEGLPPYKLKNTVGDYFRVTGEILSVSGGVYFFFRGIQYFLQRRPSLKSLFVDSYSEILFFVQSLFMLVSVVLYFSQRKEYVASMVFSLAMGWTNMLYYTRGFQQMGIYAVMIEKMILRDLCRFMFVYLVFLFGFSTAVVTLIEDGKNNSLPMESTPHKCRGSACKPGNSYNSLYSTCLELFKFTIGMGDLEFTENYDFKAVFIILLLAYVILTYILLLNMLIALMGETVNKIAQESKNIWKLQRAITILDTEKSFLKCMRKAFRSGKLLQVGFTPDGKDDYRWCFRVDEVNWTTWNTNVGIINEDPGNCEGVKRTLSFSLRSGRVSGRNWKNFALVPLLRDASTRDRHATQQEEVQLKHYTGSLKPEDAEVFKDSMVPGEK

As usually defined, the EC50 is the concentration at which the effect is half-maximal. Turning to `COc1cc(CNC(=O)COC(=O)CC/C(C)=C/CC/C(C)=C/CC/C=C(\C)CCC=C(C)CCC=C(C)C)ccc1O` (stereo in doubt) [Ex-52, (4E,8E,12E,16E)-2-((4-hydroxy-3-methoxybenzyl)-amino)-2-oxoethyl 4,8,13, 17,21-pentamethyldocosa-4,8,12,16,20-pentaenoate], the “TRPV1 activation at 10 μM (% ± SD)” value on rat TRPV1 channel [1] was determined as 79.31 ± 6.41%. Moreover, the 50% effective concentration (EC50) on rat TRPV1 channel [2] turned out to be 0.04 ± 0.008 µM.
As for `CC(C)=CCCC(C)=CCC/C(C)=C/CC/C=C(\C)CC/C=C(\C)CCC(=O)OCC(=O)NCc1ccc(O)c(O)c1` (stereo in doubt) [Ex-56, (4E,8E,12E,16E)-2-((3,4-dihydroxybenzyl)amino)-2-oxoethyl 4,8,13,17,21-pentamethyldocosa-4,8,12,16,20-pentaenoate], at rat TRPV1 channel [1], the “TRPV1 activation at 10 μM (% ± SD)” value is 83.71 ± 6.00%. Moreover, the concentration giving a half-maximal response (EC50) at rat TRPV1 channel [2] was 0.015 ± 0.02 µM.
Taken in the same sequence, the figures for `COc1cc(CNC(=O)COC(=O)/C=C(\C)CCC=C(C)C)ccc1O` [Ex-32, (E)-2-((4-hydroxy-3-methoxy-benzyl)amino)-2-oxoethyl 3,7-dimethylocta-2,6-dienoate] were 75.90 ± 2.49% and 0.28 ± 0.08 µM.
As to `CCCCCCCCCCCC(=O)OCC(=O)NCc1ccc(O)c(OC)c1` [Ex-36, 2-((4-hydroxy-3-methoxy-benzyl)amino)-2-oxoethyl dodecanoate], at rat TRPV1 channel [1], the “TRPV1 activation at 10 μM (% ± SD)” value was 74.80 ± 8.30%. For the same molecule, the EC50 at rat TRPV1 channel [2] worked out at 0.08 ± 0.03 µM.
In general, IC50 refers to the concentration that inhibits the measured activity by half. Regarding `CCCCCCCCCCCC(=O)OCC(=O)NCc1cc(OC)c(O)cc1I` [Ex-37, 2-((4-hydroxy-2-iodo-5-methoxybenzyl)amino)-2-oxoethyl dodecanoate], the “antinociceptive effect in the thermal hyperalgesia test, intraplantar” value in the experiment on C57-mice (intraplantar at 10, 30 or 100 mg/kg on the right hind paw, FIG. 2) is “showed antinociceptive effects”. Also, the “antinociceptive effect in the thermal hyperalgesia test, intravenous” value with C57-mice (intravenously at 1, 3 or 10 mg/kg, FIG. 1) is recorded as “showed antinociceptive effects”. Moreover, on rat TRPV1 channel [1], the “TRPV1 blockage at 10 μM (% ± SD)” value was found to be 43.18 ± 10.07%. Moreover, the IC50 on rat TRPV1 channel [2] worked out at 0.86 ± 0.51 µM.
On to `CC(C)=CCC/C(C)=C/C(=O)OCC(=O)NCc1ccc(O)c(O)c1` [Ex-54, (E)-2-((3,4-dihydroxybenzyl)amino)-2-oxoethyl 3,7-dimethylocta-2,6-dienoate], for which the “TRPV1 activation at 10 μM (% ± SD)” value at rat TRPV1 channel [1] is recorded as 77.42 ± 5.17%. For the same molecule, the EC50 at rat TRPV1 channel [2] is 0.11 ± 0.02 µM.
For `CC(C)=CCC/C(C)=C/C(=O)OCC(=O)NCc1cc(O)c(O)cc1I` [Ex-55, (E)-2-((4,5-dihydroxy-2-iodobenzyl)amino)-2-oxoethyl 3,7-dimethylocta-2,6-dienoate], the “TRPV1 blockage at 10 μM (% ± SD)” value at rat TRPV1 channel [1] is 104.22 ± 12.65%. Further, the IC50 at rat TRPV1 channel [2] turned out to be 6.82 ± 1.38 µM.
On to `CCCCCCCC/C=C\CCCCCCCC(=O)OCC(=O)NCCc1cc(O)c(O)cc1I` [Ex-63, 2-((4,5-dihydroxy-2-iodophenethyl)amino)-2-oxoethyl oleate], for which the “TRPV1 blockage at 10 μM (% ± SD)” value on rat TRPV1 channel [1] is on record as 1.13 ± 5.56%.
Regarding `CCCCC/C=C\C/C=C\C/C=C\C/C=C\CCCC(=O)OCC(=O)NCCc1ccc(O)c(O)c1` [Ex-64, (5Z,8Z,11Z,14Z)-2-((3,4-dihydroxyphenethyl)amino)-2-oxoethyl icosa-5,8,11,14-tetraenoate], the “TRPV1 activation at 10 μM (% ± SD)” value on rat TRPV1 channel [1] is given as 79.05 ± 11.25%.
Turning to `CCCCC/C=C\C/C=C\C/C=C\C/C=C\CCCC(=O)OCC(=O)NCCc1cc(O)c(O)cc1I` [Ex-65, (5Z,8Z,11Z,14Z)-2-((4,5-dihydroxy-2-iodophenethyl)-amino)-2-oxoethyl icosa-5,8,11,14-tetraenoate], the “TRPV1 blockage at 10 μM (% ± SD)” value on rat TRPV1 channel [1] turned out to be 6.71 ± 2.18%.
As to `N.N.N.N.N.N.N.N.N.N.N.N.N.N.[Cl-].[Cl-].[Cl-].[Cl-].[Cl-].[Cl-].[O-2].[O-2].[Ru+3].[Ru+3].[Ru+4]` [RR, Ruthenium Red, reference compound], the “TRPV1 blockage at 10 μM (% ± SD)” value on rat TRPV1 channel [1] came out at 100%.

The record behind these values is patent publication US11274073B2, “TRPV1 modulator compounds” (ANTALGENICS, S.L., priority 2017, dated 2022).
